Legend:
PTP1B phosphatase = molecular target: T1, PTP1B phosphatase (Homo sapiens, UniProt P18031); test: Recombinant PTP1B assay (pNPP substrate); format: biochemical; conditions: for inhibitory effect on PTP1B: 78.125 nM (lowest statistically significant concentration); for Ki: calculated as Ki = IC50/(S/Km + 1), S 1 mM, Km 0.7 mM, competitive type assumed from docking, read-out: Ki ± SD; for IC50: recombinant PTP1B 10 nM, 1 mM pNPP, 37 °C, HEPES pH 7.4; for inhibition of PTP1B: concentration range 39.063 to 625 nM
T1 construct: purchased Cayman Chemical, Ann Arbor, MI, USA
T1 sequence (P18031 1-435): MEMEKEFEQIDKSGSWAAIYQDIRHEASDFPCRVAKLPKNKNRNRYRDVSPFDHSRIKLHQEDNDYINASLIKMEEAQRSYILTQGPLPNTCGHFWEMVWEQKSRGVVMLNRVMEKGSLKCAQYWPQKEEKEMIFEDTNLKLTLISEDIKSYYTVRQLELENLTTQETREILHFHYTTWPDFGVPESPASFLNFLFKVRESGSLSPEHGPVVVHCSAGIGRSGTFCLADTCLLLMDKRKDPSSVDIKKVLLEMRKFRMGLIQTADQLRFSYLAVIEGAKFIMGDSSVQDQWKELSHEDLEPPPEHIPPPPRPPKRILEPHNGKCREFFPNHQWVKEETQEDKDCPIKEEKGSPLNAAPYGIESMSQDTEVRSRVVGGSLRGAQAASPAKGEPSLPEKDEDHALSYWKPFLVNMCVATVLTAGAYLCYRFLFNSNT
Description: The experiment was carried out on 96-well plates. The final concentration of PTP1B phosphatase in the reaction samples was […] (10 nM). […] The enzyme activities of PTP1B phosphatase were evaluated at 37 °C using 1 mM chromogenic substrate para-nitrophenyl phosphate (pNPP) in 10 mM HEPES buffer pH 7.4. The increase in absorbance (due to the formation of para-nitrophenols) is linearly proportional to the concentration of enzyme activity (with excessive substrate, i.e., zero-order kinetics) and was measured at 405 nm using DigiRead Communication Software (version 1.2.0.2., Dan Kittrich, Asys Hitech GmbH, Eugendorf, Austria) on the Jupiter microplate reader (Biogenet, Józefów, Poland). Data were expressed as the percentage of untreated enzyme (control).

[1] = system: MDA-MB-231 breast cancer cell line; test: Cell viability assay (MTT); format: cell-based; conditions: 24 h
Description: (§1) The MCF-7 and MDA-MB-231 breast cancer cell lines and the human keratinocyte HaCaT cell line were obtained from the American Type Culture Collection (ATCC, Manassas, VA, USA). Dulbecco’s modified eagle medium supplemented with 10% fetal bovine serum (FBS) and 1% penicillin/streptomycin was used to cultivate the cell lines. The cells were cultured at 37 °C in a 5% CO2 atmosphere.
(§2) According to the general protocol, a cell viability assay (MTT assay) was performed. […] The chemicals were dissolved in a growth medium containing 1% penicillin/streptomycin. After 24 h, 0.5 mg/mL of MTT solution (3-[4,5-dimethylthiazol-2-yl]-2,5-diphenyl-tetrazolium bromide) was added. 100 µL of DMSO was added to each well once the purple precipitate was clearly visible under the microscope. A microplate reader (Biogenet, Jozefow, Poland) and DigiRead Communication Software were used to measure the absorbance at 492 nm (Asys Hitech GmbH, Eugendorf, Austria). Data were expressed as the percentage of untreated cells (control).

[2] = system: human keratinocyte HaCaT cell line; test: Cell viability assay (MTT); format: cell-based; conditions: 24 h
Description: as §1, §2

[3] = cited from earlier work; for equivalents of L-ascorbic acid: antioxidant activity towards superoxide radical anion
[4] = system: MCF-7 breast cancer cell line; test: Cell viability assay (MTT); format: cell-based; conditions: 24 h
Description: as §1, §2

With `O.O.O.O.O=C([O-])c1cccc(C(=O)[O-])n1.[O]=[V+2]` [Compound 1, [VO(dipic)(H2O)2]·2 H2O] the “inhibitory effect on PTP1B” value (PTP1B phosphatase) was 17%, the Ki (PTP1B phosphatase) was 256 ± 15.3 nM and the IC50 (PTP1B phosphatase) was 628 ± 39.1 nM. The cytotoxic effect ([1]; MDA-MB-231, 50 µM) was 25%, the “cytotoxic effect (in words)” value ([2]; 50 µM) was “no cytotoxic effect” and the “effect on cell growth (in words)” value ([2]; low concentrations) was “improved cell growth at low concentrations”. The “equivalents of L-ascorbic acid” value [3] was 2.359.

In the case of `O.O=C([O-])c1cccc(C(=O)[O-])n1.[O]=[V+2].c1ccc(-c2ccccn2)nc1` [Compound 2, [VO(dipic)(bipy)]·H2O], the “inhibitory effect on PTP1B” value (PTP1B phosphatase) is reported as 19%, the Ki (PTP1B phosphatase) is reported as 173 ± 17.2 nM and the IC50 (PTP1B phosphatase) is reported as 426 ± 37.1 nM. The “cell viability (% of control)” value ([1]; MDA-MB-231, 25 µM) was 65%, the “cell viability (% of control)” value ([1]; MDA-MB-231, 50 µM) was 56% and the “cell viability (% of control)” value ([1]; MDA-MB-231, 100 µM) was 44%. For the same compound, the “equivalents of L-ascorbic acid” value [3] was 0.936.

In the case of `O.O.O=C1CNCC(=O)[O][V](=[O])[O]1.c1ccc(-c2ccccn2)nc1` [Compound 3, [VO(ida)(bipy)]·2 H2O], the “inhibitory effect on PTP1B” value (PTP1B phosphatase) is reported as 25%, the Ki (PTP1B phosphatase) is reported as 221 ± 19.1 nM and the IC50 (PTP1B phosphatase) is reported as 543 ± 48.4 nM. The “cell viability (% of control)” value ([1]; MDA-MB-231, 25 µM) was 76%, the “cell viability (% of control)” value ([1]; MDA-MB-231, 50 µM) was 55% and the “cell viability (% of control)” value ([1]; MDA-MB-231, 100 µM) was 46%. For the same compound, the “equivalents of L-ascorbic acid” value [3] was 5.43.

In the case of `COc1ccnc(-c2cc(OC)ccn2)c1.O.O.O=C([O-])c1cccc(C(=O)[O-])n1.[O]=[V+2]` [Compound 4], the Ki (PTP1B phosphatase) is reported as 74.2 ± 4.1 nM, the “inhibition of PTP1B” value (PTP1B phosphatase) is reported as 31–67% and the IC50 (PTP1B phosphatase) is reported as 185 ± 9.8 nM. The “cell viability (% of control)” value ([4]; MCF-7, 25 µM) was 86%, the “cell viability (% of control)” value ([4]; MCF-7, 50 µM) was 61% and the “cell viability (% of control)” value ([4]; MCF-7, 100 µM) was 53%.

For `O.O=C1[O][V-](=[O])(=[O])[O]C(=O)c2cccc1n2.c1ccc(-c2cccc[nH+]2)cc1` [Compound 5, [VOO(dipic)](2-phepyH)·H2O], the Ki (PTP1B phosphatase) was 66.7 ± 3.3 nM, the “inhibition of PTP1B” value (PTP1B phosphatase) was 38–68% and the IC50 (PTP1B phosphatase) was 167 ± 8 nM. The “calculated equivalent towards L-ascorbic acid” value ([3]; antioxidant activity towards superoxide anion radicals) was 0.68.

In the case of `[Na+].[Na+].[Na+].[O]=[V]([O-])([O-])[O-]` [Sodium orthovanadate, reference compound], the “inhibition of enzymatic activity of PTP1B (in words)” value (PTP1B phosphatase; complexes and orthovanadate 39.0625 nM to 5 µM, ligands 500 nM to 5 µM) is reported as “inhibited the enzymatic activity of PTP1B phosphatase in a concentration-dependent manner” and the “inhibition of PTP1B” value (PTP1B phosphatase) is reported as 31–67%.
